Measured values: patent US12590071B2, “Hydrazone derivative in which terminal amine group is substituted with aryl group or heteroaryl group, and use thereof” (KOREA INSTITUTE OF SCIENCE AND TECHNOLOGY, priority 2018, dated 2026)

Assays:
[1] = Liver microsomal stability (human); type: in vitro ADME; details: amount of substrate remaining; 1 μM, 0.25 mg/mL microsomes, 37° C., 30 minutes
Procedure, shortened: (§1)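 Compound at 1 μM with microsomes (0.25 mg/mL each species) in 0.1 M phosphate buffer pH 7.4, preincubated 5 min at 37 °C, then 30 min at 37 °C after NADPH-generating system addition. Quenched with acetonitrile plus internal standard; remaining substrate measured by LC-MS/MS.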

[2] = Liver microsomal stability (rat); type: in vitro ADME; details: amount of substrate remaining; 1 μM, 0.25 mg/mL microsomes, 37° C., 30 minutes
Procedure, shortened: as §1

[3] = Pharmacokinetics in SD rat (plasma PK parameters); type: in vivo; details: for AUCall / clearance / half-life / Cmax / Tmax: SD rat plasma; for F: SD rat, PO 10 mg/kg versus IV
Procedure: Specifically, an SD rat of 7 to 8 weeks of age (Core Tech, Hana Trading Co., Ltd.) having a body weight of about 250 g to 300 g was purchased, and was managed in a simple breeding room for small animals set to a temperature of 22° C.±2° C., a relative humidity of 50%±5%, a lighting time of 12 hours (light up at 8:00 A.M., turn off at 8:00 P.M.), and an illuminance of 150 lux to 300 lux. During the entire test period, feed was freely provided, RO water was freely provided, and fasting was performed for 16 hours before the oral administration of a drug. After preparing a drug under the conditions shown in Table 5 below, the drug was intravenously injected (IV) or orally administered (PO). 500 µL of transfused blood was collected in a tube containing sodium heparin and centrifuged at 2° C. to 8° C. at 8,000 rpm for 6 minutes to obtain plasma from the blood. The obtained plasma was added to 180 μL of acetonitrile containing internal standard materials, vortexed, and then centrifuged at 15,000 rpm at 4° C. for 5 minutes to obtain a supernatant. The obtained supernatant was analyzed by LC-MS/MS.
Specific PK parameters were acquired using the Phoenix WinNonlin version 6.4 program (Phersight, USA) and wore calculated with a non-compartmental analysis model.

Tau-BiFC cells = test: Cytotoxicity (cell survival rate) in tau-BiFC cells; details: group treated with Forskolin alone = 100%
Procedure, shortened: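 Tau-BiFC cells co-treated 48 h with Forskolin ([…]) and compound at 0.03–30 μM. BiFC fluorescence quantified by imaging, IC50 by nonlinear regression; cytotoxicity as Hoechst-stained nuclei count relative to Forskolin-only wells (100% survival).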

| SMILES | liver microsomal stability, Human (%) [1] | liver microsomal stability, Rat (%) [2] | AUCall ([3]; IV 1 mg/kg) | clearance ([3]; IV 1 mg/kg) | half-life ([3]; IV 1 mg/kg) | AUCall ([3]; PO 10 mg/kg) | Cmax ([3]; PO 10 mg/kg) | Tmax ([3]; PO 10 mg/kg) | half-life ([3]; PO 10 mg/kg) | F [3] | Cell survival rate (% @ 10 μM) (Tau-BiFC cells) | Cmax ([3]; IV 1 mg/kg) | Tmax ([3]; IV 1 mg/kg) | AUCall ([3]; IV 2 mg/kg) | Cmax ([3]; IV 2 mg/kg) | Tmax ([3]; IV 2 mg/kg) | clearance ([3]; IV 2 mg/kg) | half-life ([3]; IV 2 mg/kg) |
| --- | --- | --- | --- | --- | --- | --- | --- | --- | --- | --- | --- | --- | --- | --- | --- | --- | --- | --- |
| N#CC(C#N)=NNc1ccc(-c2ncccn2)cc1 [Compound 1, (4-(pyrimidin-2-yl)phenyl)carbonohydrazonoyl dicyanide] | 44.1% | 28.3% | 7260.0 ± 580.1 hr, ng/mL | 11.5 ± 0.9 mL/min/kg | 1.1 ± 1 h | 4652.8 ± 1158.9 hr, ng/mL | 1840 ± 609 ng/mL | 1.7 ± 2.9 h | 1.6 ± 1.6 h | 32% | 74% |  |  |  |  |  |  |  |
| N#CC(C#N)=NNc1ccc(-c2cnc3ccnn3c2)cc1 [Compound 50, (4-(pyrazolo[1,5-a]pyrimidin-6-yl)phenyl)carbonohydrazonoyl dicyanide] | 81.1% | 85.7% | 8149.7 ± 1421.0 hr, ng/mL | 2 ± 0.3 mL/min/kg | 1.9 ± 0.3 h | 6726.6 ± 2700.2 hr, ng/mL | 1330 ± 788 ng/mL | 5 ± 2 h |  | 8.3% | 76% |  |  |  |  |  |  |  |
| N#CC(C#N)=NNc1ccc(-c2ncc(F)cn2)cc1 [Compound 2, (4-(5-fluoropyrimidin-2-yl)phenyl)carbonohydrazonoyl dicyanide] | 92.7% | 97.2% | 7335.6 ± 1794.1 hr, ng/mL | 2.4 ± 0.7 mL/min/kg | 1.2 ± 0.3 h | 19890.5 ± 6049.3 hr, ng/mL |  |  |  | 27.1% | 59% | 4280 ± 1390 ng/mL | 5.5 ± 1 h |  |  |  |  |  |
| Cc1cnc(C(=O)Nc2nc3ccc(NN=C(C#N)C#N)cc3s2)cn1 [Compound 93, (2-(5-methylpyrazine-2-carboxamido)benzo[d]thiazol-6-yl)carbonohydrazonoyl dicyanide] | 83.9% | 63.3% | 6059.4 ± 548.0 hr, ng/mL | 2.7 ± 0.3 mL/min/kg | 1.7 ± 0.1 h | 13884.8 ± 3420.9 hr, ng/mL | 2570 ± 423 ng/mL | 5 ± 1.2 h |  | 22.9% | 129.2% |  |  |  |  |  |  |  |
| Cc1ncc(-c2ccc(NN=C(C#N)C#N)cc2)s1 [Compound 11, (4-(2-methylthiazol-5-yl)phenyl)carbonohydrazonoyl dicyanide] | 87.5% | 49.6% |  |  |  | 19169.2 hr, ng/mL | 6900 ng/mL | 0.25 h | 2.96 h | 32.5% | 146.2% |  |  | 11800.37 hr, ng/mL | 10700 ng/mL | 0.08 h | 2.84 mL/min/kg | 1.05 h |
